pIC50: −log10 of the molar value. Values after ≈ are worked out from the molar mass of the structure shown. Read-outs that look alike come from different tables or passages of the source.
Assays:
[1] = system: Escherichia coli EC-1: VOGEL, mouse virulent; assay: MIC determination (CLSI), EC-1; assay type: cell-based; conditions: read-out: EC-1 MIC
Description: (§1) The in vitro antibacterial activity of compounds described in the Examples was evaluated by minimum inhibitory concentration (MIC) testing according to Clinical and Laboratory Standards Institute (CLSI). See: Clinical and Laboratory Standards Institute. Methods for Dilution Antimicrobial Susceptibility Tests for Bacteria that Grow Aerobically; Approved Standard-Eighth Edition. CLSI document M7-A8 [ISBN 1-56238-689-1]. Clinical and Laboratory Standards Institute, 940 West Valley Road, Suite 1400, Wayne, Pa. 19087-1898 USA, 2006; also Clinical and Laboratory Standards Institute. Performance Standards for Antimicrobial Susceptibility Testing; Twentieth Informational Supplement. CLSI document M100-S20 [ISBN1-56238-716-2]. Clinical and Laboratory Standards Institute.
(§2) The MIC determination is a standard laboratory method for evaluating the antibacterial activity of a compound. The MIC represents the lowest drug concentration that inhibits visible growth of bacteria following overnight incubation. […] Typically, the drug concentration range is broken down into 2-fold increments (e.g., 0.06 μg/mL, 0.12 μg/mL. 0.25 μg/mL, 0.50 μg/mL, 1.0 μg/mL, etc.) and the various drug concentrations are all individually incubated overnight with approximately the same number of bacteria. The MIC is then determined by visually inspecting the drug effect at each concentration, and identifying the lowest drug concentration that has inhibited bacterial growth as compared to the drug free control. Typically, bacteria continue to grow at drug concentrations lower than the MIC and don't grow at concentrations at and above the MIC.
(§3) The MIC values described in Tables 4 and 5 below were derived from assays wherein each test compound was evaluated in duplicate. In cases where the duplicate values varied by 0-2-fold, the lower of the two values was reported below. Generally speaking, if the duplicate values varied by more than 2-fold, the assay was considered non-valid and was repeated until the variation between duplicate runs was 2-fold. In line with the CLSI guidelines referred to above, both control organisms and reference compounds were utilized in each MIC assay to provide proper quality control. MIC values generated with these control organisms and reference compounds were required to fall within a defined range for the assay to be considered valid and be included herein. Those skilled in the art will recognize that MIC values can and do vary from experiment to experiment. Generally speaking, it should be recognized that MIC values often vary +/−2-fold from experiment to experiment. While a single MIC is reported for each compound and each microorganism, the reader should not conclude that each compound was only tested once. Several of the compounds were subjected to multiple tests. The data reported in Tables 4 and 5 is reflective of the compound's relative activity and different MICs may have been generated on these occasions in line with the guidelines described above.
(§4) The following bacterial strains were used in these MIC determinations:
2) Escherichia coli EC-1: VOGEL, mouse virulent labeled as EC-1 in Tables 4 and 5;

[2] = target: T1, Pseudomonas aeruginosa LpxC enzyme (Pseudomonas aeruginosa, UniProt P47205); assay: LpxC enzyme IC50 assay (PA LpxC enzyme IC50), BioTrove RapidFire mass spectrometry; assay type: biochemical
T1 construct: made in house; host or cells: E. coli
T1 sequence (P47205 1-303): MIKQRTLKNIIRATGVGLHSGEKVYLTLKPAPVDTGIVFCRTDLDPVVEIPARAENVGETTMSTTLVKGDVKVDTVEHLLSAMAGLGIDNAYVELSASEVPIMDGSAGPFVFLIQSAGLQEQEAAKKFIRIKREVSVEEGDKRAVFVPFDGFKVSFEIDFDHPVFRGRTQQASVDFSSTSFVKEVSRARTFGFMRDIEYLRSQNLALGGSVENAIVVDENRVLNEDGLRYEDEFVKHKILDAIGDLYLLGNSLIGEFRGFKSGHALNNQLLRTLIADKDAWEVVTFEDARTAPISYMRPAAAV
Description: In order to assess the compounds biological activity selected in vitro assays were conducted on selected compounds. One of the assays measured the compounds ability to disrupt the synthesis of lipopolysaccharide, LPS, which is a component of the outer membrane of Gram-negative bacteria. Disruption of this synthesis is lethal to the bacteria. The assay determined the compound's ability to inhibit LpxC, which is the first enzyme in the biosynthetic pathway for LPS (measured as IC50). Additionally, MICs (minimal inhibitory concentrations) were determined for several bacteria. The specific protocols are described below:
A) IC50 Assay LpxC Enzyme from P. aeruginosa Labeled as PA LpxC Enzyme IC50):
At the end of 1 hour, 5 ul of 1 N HCl was added to stop the enzyme reaction, the plates were centrifuged, and then processed with the BioTrove Rapidfire HTMS Mass Spectrometry System. A no-enzyme control was used in calculating the IC50 values from the percent conversion values.

[3] = system: Acinetobacter baumannii/haemolyticus: Multidrug-resistant clinical isolate AB-3167; assay: MIC determination (CLSI), AB-3167; assay type: cell-based; conditions: overnight incubation, duplicate, lower of the two values reported
Description: as §1, §2, §3, §4
3) Acinetobacter baumannii/haemolyticus: Multidrug-resistant clinical isolate labeled as AB-3167 in Tables 4 and 5;

[4] = system: Pseudomonas aeruginosa UC12120 (mouse virulent); assay: MIC determination (CLSI), PA-UC12120; assay type: cell-based; conditions: UC12120, read-out: PA-UC12120 MIC
Description: as §1, §2, §3, §4
1) Pseudomonas aeruginosa UC12120 (mouse virulent) labeled as PA-UC12120 in Tables 4 and 5;

[5] = P. aeruginosa LpxC enzyme 0.1 nM, 25° C., 1 hour, pH 8.0, read-out: PA:IC50

| Compound | MIC [1] [µg/mL] | pIC50 [2, 5] | MIC [3] [µg/mL] | MIC [4] [µg/mL] | pIC50 [2] |
| --- | --- | --- | --- | --- | --- |
| C[C@@](CCc1cc(-c2ccccc2)no1)(C(=O)NO)S(C)(=O)=O [Example 4, (2R)-N-hydroxy-2-methyl-2-(methylsulfonyl)-4-(3-phenylisoxazol-5-yl)butanamide] | 4 (≈ 11.8 µM) | 8.24 | > 64 | 0.25 (≈ 0.739 µM) | – |
| CC(CCc1cc(COCc2ccccc2)on1)(C(=O)NO)S(C)(=O)=O (racemic) [Example 9, 4-{5-[(benzyloxy)methyl]isoxazol-3-yl}-N-hydroxy-2-methyl-2-(methylsulfonyl)butanamide] | > 64 | 7.60 | > 64 | 8 (≈ 20.9 µM) | – |
| CC(CCc1cc(CC2(O)CCCCC2)on1)(C(=O)NO)S(C)(=O)=O (racemic) [Example 17, N-hydroxy-4-{5-[(1-hydroxycyclohexyl)methyl]isoxazol-3-yl}-2-methyl-2-(methylsulfonyl)butanamide] | > 64 | < 7.00 | > 64 | > 64 | – |
| CC(CCc1cc(-c2c(Cl)cccc2Cl)on1)(C(=O)NO)S(C)(=O)=O (racemic) [Example 10, 4-[5-(2,6-dichlorophenyl)isoxazol-3-yl]-N-hydroxy-2-methyl-2-(methylsulfonyl)butanamide] | 8 (≈ 19.6 µM) | 7.98 | > 64 | 64 (≈ 157 µM) | – |
| CC(CCc1cc(-c2ccncc2F)no1)(C(=O)NO)S(C)(=O)=O (racemic) [Example 37, 4-[3-(3-fluoropyridin-4-yl)isoxazol-5-yl]-N-hydroxy-2-methyl-2-(methylsulfonyl)butanamide] | > 64 | 7.28 | > 64 | 16 (≈ 44.8 µM) | – |
| CCOC(=O)N(Cc1cc(CCC(C)(C(=O)NO)S(C)(=O)=O)no1)C(C)C (racemic) [Example 23, ethyl ({3-[4-(hydroxyamino)-3-methyl-3-(methylsulfonyl)-4-oxobutyl]isoxazol-5-yl}methyl)isopropylcarbamate] | > 64 | < 7.00 | > 64 | > 64 | – |
| COc1ccccc1OCc1cc(CCC(C)(C(=O)NO)S(C)(=O)=O)no1 (racemic) [Example 12, N-hydroxy-4-{5-[(2-methoxyphenoxy)methyl]isoxazol-3-yl}-2-methyl-2-(methylsulfonyl)butanamide] | > 64 | 7.43 | > 64 | > 64 | – |
| CC(CCc1cc(-c2ccc(N3CCOCC3)c(F)c2)no1)(C(=O)NO)S(C)(=O)=O (racemic) [Example 48, 4-[3-(3-fluoro-4-morpholin-4-ylphenyl)isoxazol-5-yl]-N-hydroxy-2-methyl-2-(methylsulfonyl)butanamide] | 32 (≈ 72.5 µM) | 7.62 | > 64 | 32 (≈ 72.5 µM) | – |
| CC(CCc1cc(CCc2ccccc2)no1)(C(=O)NO)S(C)(=O)=O (racemic) [Example 39, N-hydroxy-2-methyl-2-(methylsulfonyl)-4-[3-(2-phenylethyl)isoxazol-5-yl]butanamide] | 32 (≈ 87.3 µM) | 8.01 | > 64 | 4 (≈ 10.9 µM) | – |
| Cc1ccc(-c2cc(CCC(C)(C(=O)NO)S(C)(=O)=O)on2)cc1 (racemic) [Example 38, N-hydroxy-2-methyl-4-[3-(4-methylphenyl)isoxazol-5-yl]-2-(methylsulfonyl)butanamide] | 8 (≈ 22.7 µM) | – | > 64 | 1 (≈ 2.84 µM) | 8.54 |
| CC(CCc1cc(-c2ccc(F)cc2)no1)(C(=O)NO)S(C)(=O)=O (racemic) [Example 44, 4-[3-(4-fluorophenyl)isoxazol-5-yl]-N-hydroxy-2-methyl-2-(methylsulfonyl)butanamide] | 16 (≈ 44.9 µM) | 8.42 | > 64 | 1 (≈ 2.81 µM) | – |
| COc1ccc(-c2cc(CC[C@](C)(C(=O)NO)S(C)(=O)=O)on2)c(F)c1 [Example 3, (2R)-4-[3-(2-fluoro-4-methoxyphenyl)isoxazol-5-yl]-N-hydroxy-2-methyl-2-(methylsulfonyl)butanamide] | 4 (≈ 10.4 µM) | – | > 64 | 0.5 (≈ 1.29 µM) | 8.36 |
| CCCCNC(=O)OCc1cc(CCC(C)(C(=O)NO)S(C)(=O)=O)no1 (racemic) [Example 25, {3-[4-(hydroxyamino)-3-methyl-3-(methylsulfonyl)-4-oxobutyl]isoxazol-5-yl}methyl butylcarbamate] | > 64 | < 7.00 | > 64 | > 64 | – |
| CC(CCc1cc(-c2cccc(Cl)c2Cl)on1)(C(=O)NO)S(C)(=O)=O (racemic) [Example 30, 4-[5-(2,3-dichlorophenyl)isoxazol-3-yl]-N-hydroxy-2-methyl-2-(methylsulfonyl)butanamide] | 4 (≈ 9.82 µM) | – | > 64 | 1 (≈ 2.46 µM) | 8.57 |
| CCOC(C)(C)c1cc(CCC(C)(C(=O)NO)S(C)(=O)=O)on1 (racemic) [Example 31, 4-[3-(1-ethoxy-1-methylethyl)isoxazol-5-yl]-N-hydroxy-2-methyl-2-(methylsulfonyl)butanamide] | > 64 | < 7.00 | > 64 | > 64 | – |
| COc1ccccc1-c1cc(CCC(C)(C(=O)NO)S(C)(=O)=O)no1 (racemic) [Example 16, N-hydroxy-4-[5-(2-methoxyphenyl)isoxazol-3-yl]-2-methyl-2-(methylsulfonyl)butanamide] | > 64 | 7.39 | > 64 | 16 (≈ 43.4 µM) | – |
| COc1cccc(-c2cc(CC[C@](C)(C(=O)NO)S(C)(=O)=O)on2)c1F [Example 1, (2R)-4-[3-(2-Fluoro-3-methoxyphenyl)isoxazol-5-yl]-N-hydroxy-2-methyl-2-(methylsulfonyl)butanamide] | 4 (≈ 10.4 µM) | – | > 64 | 2 (≈ 5.18 µM) | 8.27 |
| CC(CCc1cc(-c2cnc3ccccc3c2)no1)(C(=O)NO)S(C)(=O)=O (racemic) [Example 40, N-hydroxy-2-methyl-2-(methylsulfonyl)-4-(3-quinolin-3-ylisoxazol-5-yl)butanamide] | – | 7.60 | – | – | – |
| CC(CCc1cc(-c2ccc(F)cc2F)on1)(C(=O)NO)S(C)(=O)=O (racemic) [Example 28, 4-[5-(2,4-difluorophenyl)isoxazol-3-yl]-N-hydroxy-2-methyl-2-(methylsulfonyl)butanamide] | – | 8.55 | – | – | – |
| CC(CCc1cc(-c2ccnc3ccccc23)no1)(C(=O)NO)S(C)(=O)=O (racemic) [Example 46, N-hydroxy-2-methyl-2-(methylsulfonyl)-4-(3-quinolin-4-ylisoxazol-5-yl)butanamide] | – | 8.27 | – | – | – |

From patent US8748466B2, “Isoxazole derivatives useful as antibacterial agents” (Pfizer Inc., priority 2011, dated 2014)
